Molecules are shown by their SMILES.

The term IC50 denotes the point on the concentration scale where inhibition reaches its midpoint.

The assay has as its target T1, Recombinant human BRD4 containing dual bromodomains (BRD4-BD12 (1-477)) (Homo sapiens, UniProt O60885).
T1 construct: Recombinant human BRD4 containing dual bromodomains (BRD4-BD12 (1-477)); made in house; host or cells: E. coli BL21-CodonPlus (DE3), modified pET vector
Nature of the assay: BRD4 Alphascreen binding assay. The gist of the method:
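AlphaScreen proximity between Ni-chelate-bound BRD4-BD12 (1-477) and streptavidin-captured H4 K5/K8/K12/K16-acetyl peptide measured after 1 h room-temperature compound incubation and 30 min with 7.5 μg/ml beads. Buffer: 50 mM HEPES pH 7.5, 50 mM NaCl, 0.01% BSA, 0.01% Triton X-100; data plate-normalized and four-parameter fit for IC50.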

For the compound `CCOc1cc(C(=O)O)cc(OCC)c1-n1cc(-c2cncc(Cl)c2)c2ncc(-c3c(C)noc3C)cc21` [P-0193, 4-(3-(5-chloropyridin-3-yl)-6-(3,5-dimethylisoxazol-4-yl)-1H-pyrrolo[3,2-b]pyridin-1-yl)-3,5-diethoxybenzoic acid], the IC50 fell in the range of 1 to 8 µM.

Turning to `CCOc1cc(C(=O)O)cc(OCC)c1-n1cc(-c2ccc(OC)cc2F)c2ncc(-c3c(C)noc3C)cc21` [P-0194, 4-(6-(3,5-dimethylisoxazol-4-yl)-3-(2-fluoro-4-methoxyphenyl)-1H-pyrrolo[3,2-b]pyridin-1-yl)-3,5-diethoxybenzoic acid], the IC50 was 1 to 8 µM. The figure for `CCOc1cc(C(=O)O)cc(OCC)c1-n1cc(-c2cnn(C)c2)c2ncc(-c3c(C)noc3C)cc21` [P-0195, 4-(6-(3,5-dimethylisoxazol-4-yl)-3-(1-methyl-1H-pyrazol-4-yl)-1H-pyrrolo[3,2-b]pyridin-1-yl)-3,5-diethoxybenzoic acid] is 1 to 8 µM. `Cc1noc(C)c1-c1cnc2c(-c3ccccc3)cn(-c3ccc(C(=O)O)cc3OC(F)(F)F)c2c1` [P-0196, 4-(6-(3,5-dimethylisoxazol-4-yl)-3-phenyl-1H-pyrrolo[3,2-b]pyridin-1-yl)-3-(trifluoromethoxy)benzoic acid]: the IC50 was 1 to 8 µM. With `Cc1noc(C)c1-c1cnc2c(c1)c(-c1c(Cl)cc(C(=O)O)cc1Cl)cn2[C@@H](C)c1ccccn1` [P-0197, (S)-3,5-dichloro-4-(5-(3,5-dimethylisoxazol-4-yl)-1-(1-(pyridin-2-yl)ethyl)-1H-pyrrolo[2,3-b]pyridin-3-yl)benzoic acid], the IC50 lay within 8 to 1000 µM. The same measure for `Cc1noc(C)c1-c1cnc2c(c1)c(-c1c(Cl)cc(C(=O)O)cc1OC(F)(F)F)cn2C(C1CC1)C1CC1` [P-0198, 3-chloro-4-(1-(dicyclopropylmethyl)-5-(3,5-dimethylisoxazol-4-yl)-1H-pyrrolo[2,3-b]pyridin-3-yl)-5-(trifluoromethoxy)benzoic acid]: 8 to 1000 µM; for `Cc1noc(C)c1-c1cnc2c(c1)c(-c1ccc(C(=O)O)cc1OC(F)(F)F)cn2C(CC#N)C1CC1` (stereo not drawn) [P-0199, 4-(1-(2-cyano-1-cyclopropylethyl)-5-(3,5-dimethylisoxazol-4-yl)-1H-pyrrolo[2,3-b]pyridin-3-yl)-3-(trifluoromethoxy)benzoic acid]: 8 to 1000 µM. Regarding `Cc1noc(C)c1-c1cnc2c(c1)c(-c1ccc(C(=O)O)cc1OC(F)(F)F)cn2C(CC#N)C1CCCC1` (stereo not drawn) [P-0200, 4-(1-(2-cyano-1-cyclopentylethyl)-5-(3,5-dimethylisoxazol-4-yl)-1H-pyrrolo[2,3-b]pyridin-3-yl)-3-(trifluoromethoxy)benzoic acid], the IC50 was in the range of 8 to 1000 µM. Turning to `CCOc1cc(C(=O)O)cc(OCC)c1-n1cc(-c2cnc(OC)nc2)c2ncc(-c3c(C)noc3C)cc21` [P-0201, 4-(6-(3,5-dimethylisoxazol-4-yl)-3-(2-methoxypyrimidin-5-yl)-1H-pyrrolo[3,2-b]pyridin-1-yl)-3,5-diethoxybenzoic acid], the IC50 fell in the range of 1 to 8 µM. With `Cc1noc(C)c1-c1cnc2c(c1)c(-c1ccc(C(=O)O)cc1OC(F)(F)F)cn2S(=O)(=O)C1CC1` [P-0202, 4-(1-(cyclopropylsulfonyl)-5-(3,5-dimethylisoxazol-4-yl)-1H-pyrrolo[2,3-b]pyridin-3-yl)-3-(trifluoromethoxy)benzoic acid], the IC50 fell in the range of 1 to 8 µM. For `Cc1noc(C)c1-c1cnc2c(c1)c(-c1ccc(C(=O)O)cc1OC(F)(F)F)cn2-c1ccnc(C(C)C)c1` [P-0203, 4-(5-(3,5-dimethylisoxazol-4-yl)-1-(2-isopropylpyridin-4-yl)-1H-pyrrolo[2,3-b]pyridin-3-yl)-3-(trifluoromethoxy)benzoic acid], the IC50 lay within 1 to 8 µM. Consider `Cc1noc(C)c1-c1cnc2c(c1)c(-c1ccc(C(=O)O)cc1OC(F)(F)F)cn2-c1cnccc1C#N` [P-0204, 4-(1-(4-cyanopyridin-3-yl)-5-(3,5-dimethylisoxazol-4-yl)-1H-pyrrolo[2,3-b]pyridin-3-yl)-3-(trifluoromethoxy)benzoic acid], for which the IC50 was 8 to 1000 µM.

These data come from patent US11446287B2, “Compounds and methods for EP300 or CBP modulation and indications therefor” (Opna Immuno-Oncology SA, priority 2019, dated 2022).
